# Measured values as given in patent publication US20090081170A1, “Cardiac progenitor cells” (priority 2007, published 2009).
# Where a SMILES comes first, the peptide text is derived from it.
# Legend:
# [1] = system: Tβ4shNk embryo hearts at E14.5; assay: AcSDKP intraperitoneal injection into pregnant females, rescue of Tβ4 knockdown embryo hearts; format: in vivo, mouse; details: E14.5 Tβ4shNk embryos
# From the text: To investigate a role for Tβ4 during heart development and to provide insight into the mechanism by which the peptide mediates adult cardiac repair, we generated mouse embryos with heart-specific Tβ4 deficiency using a novel strategy of transgenic conditional RNA interference (RNAi; as described above). Floxed Tβ4 short hairpin RNA (Tβ4shRNAflox) mice were crossed with two strains of Cre-expressing mice: Nkx2-5^CreKI (designated Tβ4shNk), which directs Cre expression throughout the majority of cardiomyocytes, and MLC2vCreKI (designated Tβ4shMlc), which directs Cre expression specifically to ventricular cardiomyocytes. Tβ4shNk embryos were also observed to have thymic defects consistent not only with Cre expression driven by Nkx2-5 in the developing thymus, but also with the thymus representing an obvious source of Tβ4.
# We next investigated whether AcSDKP could rescue any of the vasculogenesis defects observed in the Tβ4 mutant hearts. […] This supports our interpretation of the primary phenotype in Tβ4 mutants. AcSDKP lacks actin binding function, rendering it unable to stimulate filamentous actin assembly and lamellipodia-based cell migration and consequently unable to rescue the EPDC defect. […]
# [2] = system: adult heart explants (adult EPDCs); assay: Adult epicardial explant culture: EPDC outgrowth and differentiation; format: cell-based, mouse
# Description: A simple protocol for the outgrowth and differentiation of vasculogenic precursor cells (endothelial and vascular smooth muscle cells) from adult heart using Thymosin β4 to stimulate epicardial cell migration is described below.
# • 1. Coat 6-well plates with gelatin: pipette 2 ml 0.1% gelatin solution, allow to stand for 15 minutes and aspirate. Optionally, place coverslips into wells, prior to gelatin coating. • 2. Cull adult mouse by cervical dislocation. • 3. Using sterile forceps and scissors make a lateral incision in the centre of the abdomen and tear back the fur to expose the rib cage. • 4. Carefully cut upwards through the sternum and along the diaphragm, taking care not to cut into the heart. Pull back the ribs to reveal the heart. • 5. Remove the heart using forceps and dissect away the atria and major vessels, to leave right and left ventricles. • 6. Place tissue in a 60 mm tissue culture dish (non gelatin coated) containing 2 ml DPBS. Cut into quarters and allow blood to rinse from the tissue. Carefully aspirate away DPBS. Using a sterile scalpel, cut the heart into pieces of approximately 1 mm^3. Reproducible EPDC outgrowth strongly depends upon the size of the heart pieces (optimally 1 mm^3). Larger pieces will not adhere to permit sufficient migration while smaller pieces tend to dissociate completely and cardiomyocyte death precedes adherence and EPDC outgrowth. • 7. Divide heart pieces into 4 equal portions (1 adult heart is typically divided between 4 wells for optimal EPDC outgrowth). • 8. Pipette 2 ml of EPDC culture medium, supplemented with 100 ng/ml Tβ4, into each well to be used. • 9. Place 1 portion of heart tissue into the centre of each well and ensure that all pieces are submerged. • 10. Gently transfer the plate to a humidified 5% CO2 37° C. incubator. Maintain cultures with minimum disturbance to allow explants to adhere. No feeding is required for the first 72 hours. Minimal disturbance is absolutely essential for EPDC outgrowth. Explants adhere only tenuously in the first instance and disturbance in the first few days of culture will prevent adhesion or lead to detachment. Plates should be transferred extremely cautiously between incubator and microscope or culture hood. After sufficient EPDCs have emerged, explants attach more firmly but care is still required as detachment may easily occur. • 11. After 72 hours in culture, carefully transfer plate to culture hood, wash explants gently with DPBS and add 2 ml fresh EPDC medium containing 100 ng/ml Tβ4. Leave for a further 24 hours before assessment of cellular phenotype.
# • 1. Culture adult heart explants as described above. • 2. After 72 hours of culture, fix cells with 4% PFA for 10 minutes at room temperature. • 3. Wash cells twice with PBS. • 4. Permeabilise cells with 0.5% Triton X-100 in PBS for 5 minutes at room temperature. • 5. Wash cells twice with PBS. • 6. Block non-specific binding by incubating cells in BLOCK (1% BSA/10% sheep serum in PBS) for 1 hour at room temperature. • 7. Incubate cells with an appropriate dilution of primary antibody (epicardin, 1:100; SMalphaA, 1:700; Flk1, 1:100), or Procollagen type I, 1:100), in BLOCK. • 8. Wash cells 3 times using BLOCK. • 9. Incubate cells with the appropriate secondary antibody (epicardin: Cy3-conjugated anti-rabbit; SMalphaA: FITC-conjugated anti-mouse, 1:30; Procollagen type I: Alexa 488-conjugated anti-goat, 1:200; Flk1: Alexa 594-conjugated anti-rat, 1:200) diluted in BLOCK. • 10. Wash cells twice in PBS. • 11. Optionally, to stain nuclei, incubate with 5 ug/ml Hoechst in PBS for 5 minutes at room temperature. • 12. Wash cells twice in PBS. • 13. Mount coverslips onto microscope slides using 50% glycerol in PBS as mountant and visualize using a fluorescence microscope. […]
smiles,measurement,setting,value
"CC(=O)N[C@@H](CO)C(=O)N[C@@H](CC(=O)O)C(=O)N[C@@H](CCCCN)C(=O)N1CCC[C@H]1C(=O)O [AcSDKP, N-acetyl-seryl-aspartyllysyl-proline] (Ac-SDKP-OH)",rescue of the phenotype attributed to Tβ4 knockdown,[1],failed to rescue any of the phenotype
same,differentiated (Flk1-positive) endothelial cells,[2]; adult epicardial explants,striking increase
same,smooth muscle cells in treated cultures,"[2]; adult epicardial explants, data not shown",only very few smooth muscle cells observed
same,EPDC outgrowth from adult heart explants,"[2]; adult mouse heart explants, 8-12 weeks, vs untreated explants",unable to promote epicardial outgrowth beyond control levels
